Assay results reported in PMC6851853, “Characterization of P. falciparum dipeptidyl aminopeptidase 3 specificity identifies differences in amino acid preferences between peptide‐based substrates and covalent inhibitors” (The Febs Journal, 2019).

Experiments:
DPAP1 [1] = biological target: T1, DPAP1 (Plasmodium falciparum, UniProt Q8IIJ9); assay: biochemical; set-up: species or system P. falciparum parasite lysate; continuous fluorogenic assay, time-dependent inactivation of DPAP1 in diluted parasite lysate, Pro-Arg-AMC 20 uM; details: for kinact: read-out: DPAP1 / k inact ·10^3; for kinact/KI: read-out: DPAP1 / k inact/K i ·10^−3 (M ^−1·s^−1)
T1 sequence (Q8IIJ9 28-209): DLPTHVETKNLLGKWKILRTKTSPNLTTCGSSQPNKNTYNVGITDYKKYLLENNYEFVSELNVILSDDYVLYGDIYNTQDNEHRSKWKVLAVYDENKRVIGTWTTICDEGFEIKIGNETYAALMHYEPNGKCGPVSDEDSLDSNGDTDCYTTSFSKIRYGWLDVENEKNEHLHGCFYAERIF
T1 sequence (Q8IIJ9 370-599): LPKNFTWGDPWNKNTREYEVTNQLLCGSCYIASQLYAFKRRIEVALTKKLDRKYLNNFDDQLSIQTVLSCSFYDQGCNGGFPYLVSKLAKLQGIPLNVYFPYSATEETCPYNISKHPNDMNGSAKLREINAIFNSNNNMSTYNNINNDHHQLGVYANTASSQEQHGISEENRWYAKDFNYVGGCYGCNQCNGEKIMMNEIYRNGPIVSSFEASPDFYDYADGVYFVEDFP
T1 sequence (Q8IIJ9 600-700): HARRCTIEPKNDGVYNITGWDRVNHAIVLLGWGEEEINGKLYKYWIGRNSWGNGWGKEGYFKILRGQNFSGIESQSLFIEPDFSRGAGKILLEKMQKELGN
Protocol: (§1) Inhibition of DPAP1 was directly measured in parasite lysates diluted 100‐fold in assay buffer using the DPAP1‐selective substrate Pro‐Arg‐AMC 42; 0.2 nM of […] was used for these inhibition studies. Note that because DPAP1 inhibition was directly measured in parasite lysates, inhibitors might have been partially inactivated through the action of aminopeptidases present in the lysates during the course of the assay. Therefore, the potency of the inhibitors might have been underestimated. […] The data were analysed according to the irreversible inhibition model shown in Eqn. 1. First, the progress curves (fluorescent units vs. time) were fitted to Eqn. 5, where F is the measured fluorescence at time t, F 0 the initial fluorescence, V 0 the initial turnover rate, and k obs the observed […] rate constant of inhibition measured at each inhibitor concentration 64.

DPAP3 [2] = biological target: T2, DPAP3 (Plasmodium falciparum, UniProt Q8I1Y2); assay: biochemical; set-up: gene PF3D7_0404700; recombinant, baculovirus/SF9 insect cells, purified from culture supernatant by ion exchange, Ni-NTA and size exclusion; active-site titrated; continuous fluorogenic assay, time-dependent inactivation of 0.2 nM recombinant DPAP3, Met-nLeu(o-Bzl)-ACC 2.2 uM; details: for kinact: read-out: DPAP3 / k inact ·10^3; for kinact/KI: read-out: DPAP3 / k inact/K i ·10^−3 (M ^−1·s^−1)
Protocol: The data were analysed according to the irreversible inhibition model shown in Eqn. 1. First, the progress curves (fluorescent units vs. time) were fitted to Eqn. 5, where F is the measured fluorescence at time t, F 0 the initial fluorescence, V 0 the initial turnover rate, and k obs the observed […] rate constant of inhibition measured at each inhibitor concentration 64. […] The inhibition constants are reported in Fig. 3C and Table 2 (See also Fig. S2 for representative fits). Only one inhibitor, containing an amino‐1‐methyl‐benzyl (Amb) group in P2, was not able to inhibit DPAP3 in a time‐dependent manner under our assay conditions (Fig. 3D). This is probably due to the fact that this extended and rigid P2 AA (Fig. 3E) might prevent proper positioning of the [compound left out] group into the active site of DPAP3 to allow covalent modification of the catalytic cysteine. For this compound, a K i value for reversible inhibition was measured.
Target sequence in this assay (Q8I1Y2 entry or part of it): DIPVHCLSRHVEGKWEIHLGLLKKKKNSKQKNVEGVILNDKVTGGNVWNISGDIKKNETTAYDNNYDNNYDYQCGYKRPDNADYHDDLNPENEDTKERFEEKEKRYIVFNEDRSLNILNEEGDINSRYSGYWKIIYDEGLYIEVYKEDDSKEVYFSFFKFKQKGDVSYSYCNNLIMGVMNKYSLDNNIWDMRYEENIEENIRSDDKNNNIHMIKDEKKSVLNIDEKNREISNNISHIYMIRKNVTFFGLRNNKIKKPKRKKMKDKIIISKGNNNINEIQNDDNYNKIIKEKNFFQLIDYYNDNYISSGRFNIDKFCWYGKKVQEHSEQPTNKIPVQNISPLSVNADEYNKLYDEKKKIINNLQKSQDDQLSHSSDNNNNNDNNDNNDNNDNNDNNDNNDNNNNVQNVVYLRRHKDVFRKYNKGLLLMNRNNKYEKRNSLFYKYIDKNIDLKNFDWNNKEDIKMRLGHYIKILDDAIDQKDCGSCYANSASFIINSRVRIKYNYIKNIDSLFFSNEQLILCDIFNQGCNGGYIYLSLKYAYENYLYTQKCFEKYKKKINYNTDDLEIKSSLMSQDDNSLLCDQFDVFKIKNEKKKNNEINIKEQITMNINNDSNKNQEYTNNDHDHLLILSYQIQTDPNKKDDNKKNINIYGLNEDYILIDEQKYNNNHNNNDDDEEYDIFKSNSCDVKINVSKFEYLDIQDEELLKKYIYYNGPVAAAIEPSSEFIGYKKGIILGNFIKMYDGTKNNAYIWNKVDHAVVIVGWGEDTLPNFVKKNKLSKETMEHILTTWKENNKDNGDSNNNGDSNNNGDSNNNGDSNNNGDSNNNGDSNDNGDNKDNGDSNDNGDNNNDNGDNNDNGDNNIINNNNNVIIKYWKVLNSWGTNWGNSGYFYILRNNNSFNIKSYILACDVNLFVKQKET

CatC (bovine) = biological target: T3, CatC (bovine) (Bos taurus, UniProt Q3ZCJ8); assay: biochemical; set-up: continuous fluorogenic assay, time-dependent inactivation of 0.2 nM CatC, Gly-Arg-AMC 15 uM; details: for kinact: read-out: CatC / k inact ·10^3; for kinact/KI: read-out: CatC / k inact/K i ·10^−3 (M ^−1·s^−1)
T3 construct: gene CTSC; native, purified to homogeneity from bovine spleen
T3 sequence (Q3ZCJ8 25-134): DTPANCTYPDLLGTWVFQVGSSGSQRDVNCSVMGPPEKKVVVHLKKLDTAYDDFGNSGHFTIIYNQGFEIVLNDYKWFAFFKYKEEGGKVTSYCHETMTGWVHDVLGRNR
T3 sequence (Q3ZCJ8 231-394): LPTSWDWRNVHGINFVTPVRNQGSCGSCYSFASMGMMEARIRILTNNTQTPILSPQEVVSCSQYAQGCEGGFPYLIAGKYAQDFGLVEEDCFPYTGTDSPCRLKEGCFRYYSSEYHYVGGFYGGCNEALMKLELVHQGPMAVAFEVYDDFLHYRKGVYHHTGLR
T3 sequence (Q3ZCJ8 395-463): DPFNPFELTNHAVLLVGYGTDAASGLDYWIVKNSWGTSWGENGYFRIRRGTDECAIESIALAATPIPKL
Protocol: as §1

DPAP3 [3] = biological target: T2, DPAP3; assay: cell-based; set-up: native enzyme in live parasites (mature schizonts); species or system P. falciparum mature schizonts in red blood cells; competitive activity-based probe FY01 labelling in intact parasites, in-gel fluorescence densitometry; details: live parasites, 30 min pretreatment
Protocol: Live parasites were treated with different concentrations of inhibitor for 30 min, and the residual level of DPAPs and FPs activities were labelled with FY01 and quantified by densitometry (Fig. 6A). […] Compounds with a P2 Trp or Tyr(NO2) are highly specific for DPAP3 in intact parasites. […] Inhibitors need to cross four membranes to reach DPAP3: the RBC, parasitophorous vacuole and parasite plasma membranes, plus the membrane of the apical organelle where DPAP3 resides 21. (The parasitophorous vacuole is a membrane‐bound structure within which the parasite grows and multiplies isolated from the RBC cytosol.) However, crossing of the parasitophorous vacuole membrane is not likely to be a limiting factor to reach DPAP3 since this membrane is generally permeable to small molecules. It is also likely that the apparent increased potency of Trp‐hPG‐VS in live parasites might be due to its accumulation into the DPAP3 acidic organelle via protonation of its free amine. However, we predict that this lysosomotropic effect likely occurs for all DPAP inhibitors presented here.  Figure 6 Selective inhibition of DPAP1 or DPAP3 in live parasites. Intact mature schizonts were pretreated for 30 min with increasing concentrations of inhibitor followed by 1 h treatment with FY01. Samples were then run in an SDS/PAGE gel and the in‐gel fluorescence measured using a fluorescence scanner. (A) Representative gel images obtained for each of the inhibitors. Fluorescent bands corresponding to the different cysteine proteases labelled by the probe are indicated with arrowheads (DPAP3, red; FPs, green; DPAP1, blue). (B) The fluorescence intensity of each of the indicated bands was quantified by densitometry using ImageJ, and the fluorescence values normalized to the DMSO control. […] Three technical replicates were performed; dose responses for a representative replicate are shown.
Target sequence in this assay (Q8I1Y2 entry or part of it): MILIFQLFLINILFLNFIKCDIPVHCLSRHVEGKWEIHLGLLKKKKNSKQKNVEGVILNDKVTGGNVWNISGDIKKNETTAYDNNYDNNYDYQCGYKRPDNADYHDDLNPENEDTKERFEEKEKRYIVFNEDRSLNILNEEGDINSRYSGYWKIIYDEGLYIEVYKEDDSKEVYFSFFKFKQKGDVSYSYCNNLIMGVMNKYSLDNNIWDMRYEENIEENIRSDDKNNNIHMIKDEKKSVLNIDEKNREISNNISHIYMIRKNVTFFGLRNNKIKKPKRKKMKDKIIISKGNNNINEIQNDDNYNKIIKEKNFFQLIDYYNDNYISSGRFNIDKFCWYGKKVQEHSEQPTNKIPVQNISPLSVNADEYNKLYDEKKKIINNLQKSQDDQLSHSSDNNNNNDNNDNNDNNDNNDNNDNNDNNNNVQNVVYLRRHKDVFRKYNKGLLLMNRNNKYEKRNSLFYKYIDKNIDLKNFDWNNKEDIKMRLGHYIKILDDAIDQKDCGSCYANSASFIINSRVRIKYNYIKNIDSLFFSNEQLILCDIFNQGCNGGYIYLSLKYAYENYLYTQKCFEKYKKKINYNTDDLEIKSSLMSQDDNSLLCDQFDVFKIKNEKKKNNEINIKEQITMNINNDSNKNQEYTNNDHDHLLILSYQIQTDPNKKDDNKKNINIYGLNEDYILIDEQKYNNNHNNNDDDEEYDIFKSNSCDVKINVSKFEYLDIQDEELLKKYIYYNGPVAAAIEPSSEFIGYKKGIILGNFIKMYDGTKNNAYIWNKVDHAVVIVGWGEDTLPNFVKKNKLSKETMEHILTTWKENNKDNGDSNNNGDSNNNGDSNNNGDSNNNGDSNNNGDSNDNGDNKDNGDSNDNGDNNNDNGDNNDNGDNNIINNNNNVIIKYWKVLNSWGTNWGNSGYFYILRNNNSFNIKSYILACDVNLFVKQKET

DPAP1 [4] = biological target: T4, DPAP1 (Plasmodium falciparum, UniProt Q8IIJ9); assay: cell-based; set-up: species or system P. falciparum mature schizonts in red blood cells; competitive activity-based probe FY01 labelling in intact parasites, in-gel fluorescence densitometry; details: live parasites, 30 min pretreatment
T4 construct: native enzyme in live parasites (mature schizonts)
T4 sequence (Q8IIJ9 1-700): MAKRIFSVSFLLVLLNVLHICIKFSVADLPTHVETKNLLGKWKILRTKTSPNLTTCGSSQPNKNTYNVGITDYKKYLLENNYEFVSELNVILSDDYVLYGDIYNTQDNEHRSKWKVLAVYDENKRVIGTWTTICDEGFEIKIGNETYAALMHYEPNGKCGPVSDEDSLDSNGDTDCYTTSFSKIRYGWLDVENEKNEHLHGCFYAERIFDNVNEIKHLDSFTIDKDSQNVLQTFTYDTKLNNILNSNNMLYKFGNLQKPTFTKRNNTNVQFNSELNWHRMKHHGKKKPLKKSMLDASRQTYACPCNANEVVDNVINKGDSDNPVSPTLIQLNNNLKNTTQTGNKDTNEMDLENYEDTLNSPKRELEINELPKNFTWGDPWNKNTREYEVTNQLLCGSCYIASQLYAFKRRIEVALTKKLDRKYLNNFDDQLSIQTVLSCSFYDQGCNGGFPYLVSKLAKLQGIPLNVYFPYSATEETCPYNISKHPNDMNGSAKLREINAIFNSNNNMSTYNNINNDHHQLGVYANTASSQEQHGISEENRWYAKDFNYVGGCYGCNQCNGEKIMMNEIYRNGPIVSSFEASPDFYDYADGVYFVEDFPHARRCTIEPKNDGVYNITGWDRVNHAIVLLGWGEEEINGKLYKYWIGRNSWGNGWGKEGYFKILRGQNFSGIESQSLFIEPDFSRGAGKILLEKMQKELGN
Protocol: (§2) Live parasites were treated with different concentrations of inhibitor for 30 min, and the residual level of DPAPs and FPs activities were labelled with FY01 and quantified by densitometry (Fig. 6A). […] Compounds with a P2 Trp or Tyr(NO2) are highly specific for DPAP3 in intact parasites. […] Inhibitors need to cross four membranes to reach DPAP3: the RBC, parasitophorous vacuole and parasite plasma membranes, plus the membrane of the apical organelle where DPAP3 resides 21. (The parasitophorous vacuole is a membrane‐bound structure within which the parasite grows and multiplies isolated from the RBC cytosol.) However, crossing of the parasitophorous vacuole membrane is not likely to be a limiting factor to reach DPAP3 since this membrane is generally permeable to small molecules. It is also likely that the apparent increased potency of Trp‐hPG‐VS in live parasites might be due to its accumulation into the DPAP3 acidic organelle via protonation of its free amine. However, we predict that this lysosomotropic effect likely occurs for all DPAP inhibitors presented here. […] Samples were then run in an SDS/PAGE gel and the in‐gel fluorescence measured using a fluorescence scanner. […] (B) The fluorescence intensity of each of the indicated bands was quantified by densitometry using ImageJ, and the fluorescence values normalized to the DMSO control. […]

FP1 = biological target: T5, FP1 (Plasmodium falciparum, UniProt P25805); assay: cell-based; set-up: species or system P. falciparum mature schizonts in red blood cells; competitive activity-based probe FY01 labelling in intact parasites, in-gel fluorescence densitometry; details: live parasites, 30 min pretreatment
T5 construct: native falcipain 1 in live parasites (mature schizonts)
T5 sequence (P25805 whole entry): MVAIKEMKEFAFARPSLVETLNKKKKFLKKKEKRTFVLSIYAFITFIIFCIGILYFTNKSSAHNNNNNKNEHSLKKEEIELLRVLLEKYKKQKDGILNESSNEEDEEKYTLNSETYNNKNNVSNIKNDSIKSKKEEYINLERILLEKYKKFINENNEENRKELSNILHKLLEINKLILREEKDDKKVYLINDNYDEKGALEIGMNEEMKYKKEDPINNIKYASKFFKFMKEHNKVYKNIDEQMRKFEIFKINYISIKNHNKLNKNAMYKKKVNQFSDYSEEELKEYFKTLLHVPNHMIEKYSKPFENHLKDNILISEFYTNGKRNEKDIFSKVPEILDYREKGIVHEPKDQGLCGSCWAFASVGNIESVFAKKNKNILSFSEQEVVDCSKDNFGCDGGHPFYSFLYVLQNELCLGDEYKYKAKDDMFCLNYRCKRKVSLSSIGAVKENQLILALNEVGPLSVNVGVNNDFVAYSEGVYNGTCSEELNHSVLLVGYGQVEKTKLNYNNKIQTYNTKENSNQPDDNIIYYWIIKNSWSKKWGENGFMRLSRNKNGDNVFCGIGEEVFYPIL
Protocol: as §2

Compound	kinact (DPAP1 [1]) [s⁻¹]	kinact/KI (DPAP1 [1]) [M⁻¹ s⁻¹]	kinact (DPAP3 [2]) [s⁻¹]	kinact/KI (DPAP3 [2]) [M⁻¹ s⁻¹]	kinact (CatC (bovine)) [s⁻¹]	kinact/KI (CatC (bovine)) [M⁻¹ s⁻¹]	IC50 (DPAP3 [3]) [nM]	IC50 (DPAP1 [4]) [nM]	IC50 (FP1) [nM]
N[C@@H](Cc1ccc2ccccc2c1)C(=O)N[C@H](/C=C/S(=O)(=O)c1ccccc1)CCCCOCc1ccccc1 [2Nal‐nLeu(o‐Bzl)‐VS]	0.005 ± 0.0017	190 ± 50	0.006 ± 0.0007	2200 ± 300	0.0024 ± 0.0006	1370 ± 90			
N[C@H](C(=O)N[C@H](/C=C/S(=O)(=O)c1ccccc1)CCCCOCc1ccccc1)C1Cc2ccccc2C1 [Igl‐nLeu(o‐Bzl)‐VS]	0.0041 ± 0.0002	860 ± 50	0.0056 ± 0.0004	35000 ± 4500	0.00148 ± 6e-05	135000 ± 14000			
N[C@H](Cc1c[nH]c2ccccc12)C(=O)N[C@H](/C=C/S(=O)(=O)c1ccccc1)CCCCOCc1ccccc1 [D‐Trp‐nLeu(o‐Bzl)‐VS]	0.0055 ± 0.0007	44 ± 2	0.0036 ± 0.0002	470 ± 10	0.00197 ± 6e-05	1700 ± 100	2700 ± 1600		
O=C(N[C@H](/C=C/S(=O)(=O)c1ccccc1)CCc1ccccc1)[C@@H]1CCCCN1 [hPro‐hPhe‐VS]	0.0048 ± 0.0006	1.23e+06 ± 400000	0.0021 ± 0.0001	69000 ± 13000	0.00167 ± 8e-05	76000 ± 800	160 ± 50	80 ± 7	350 ± 80
N[C@@H](Cc1ccc(O)c([N+](=O)[O-])c1)C(=O)N[C@H](C=CS(=O)(=O)c1ccccc1)CCc1ccccc1 [Tyr(NO2)‐hPhe‐VS]	0.0038 ± 0.001	150 ± 50	0.00226 ± 5e-05	950000 ± 74000	0.0032 ± 0.0006	54 ± 8			
N[C@@H](Cc1c[nH]c2ccccc12)C(=O)N[C@H](/C=C/S(=O)(=O)c1ccccc1)CCCCOCc1ccccc1 [L‐Trp‐nLeu(o‐Bzl)‐VS]	0.0022 ± 0.0001	5800 ± 600	0.0032 ± 0.0003	826000 ± 193000	0.00174 ± 3e-05	355000 ± 18000	760 ± 150		
N[C@H](C(=O)N[C@H](/C=C/S(=O)(=O)c1ccccc1)CCc1ccccc1)C1Cc2ccccc2C1 [Igl‐hPhe‐VS]	0.0027 ± 0.0001	500 ± 30	0.0021 ± 0.0007	205000 ± 22000	0.0058 ± 0.0003	18000 ± 3000			
